The subject of test [1] is Phytophthora infestans. Type of test: cell-based. The conditions noted are these: microtiter plate, 405 nm, day 7.
Test [2] has as its system Botrytis cinerea. The test is described as follows: Activity against the gray mold pathogen Botrytis cinerea in the microtiter test. Type of test: cell-based. Conditions: microtiter plate, day 7.
Test [3] concerns Puccinia recondite. The test is described as follows: Curative activity against brown rust of wheat (greenhouse). The conditions noted are these: wheat seedlings, sprayed 1 day after inoculation, rated after 7 days. Type of test: in vivo. The procedure: (§1) The active compounds were separately or jointly prepared as a stock solution comprising 25 mg of active compound which was made up to 10 ml using a mixture of acetone and/or DMSO and the emulsifier Uniperol® EL (wetting agent having emulsifying and dispersing action based on ethoxylated alkylphenols) in a volume ratio of solvent/emulsifier of 99 to 1. The mixture was then made up with water to 100 ml. This stock solution was diluted with the solvent/emulsifier/water mixture described to the concentration of active compounds stated below.
(§2) The visually determined percentages of infected leaf areas were converted into efficacies in % of the untreated control:
(§3) The efficacy (E) is calculated as follows using Abbot's formula: […]
(§4) α corresponds to the fungal infection of the treated plants in % and β corresponds to the fungal infection of the untreated (control) plants in %
(§5) An efficacy of 0 means that the infection level of the treated plants corresponds to that of the untreated control plants; an efficacy of 100 means that the treated plants were not infected.
(§6) The expected efficacies of combinations of active compounds were determined using Colby's formula (Colby, S. R. “Calculating synergistic and antagonistic responses of herbicide combinations”, Weeds, 15, 20-22, 1967) and compared with the observed efficacies.
(§7) E=x+y−x·y/100 • E expected efficacy, expressed in % of the untreated control, when using the mixture of the active compounds A and B at the concentrations a and b • x efficacy, expressed in % of the untreated control, when using the active compound A at the concentration a • y efficacy, expressed in % of the untreated control, when using the active compound B at the concentration b
Leaves of wheat seedlings of the cultivar “Kanzler” cultivated in pots were inoculated with a spore suspension of brown rust (Puccinia recondite). The pots were then placed in a chamber with high atmospheric humidity (90 to 95%) and at 20 to 22° C. for 24 hours. During this time, the spores germinated and the germ tubes penetrated into leaf tissue. The next day, the infected plants were sprayed to runoff point with the solution of active compound described above having the active compound concentration stated below. After the spray coating had dried on, the test plants were cultivated in a greenhouse at temperatures between 20 and 22° C. and at 65 to 70% relative atmospheric humidity for 7 days. The extent of the rust fungus development on the leaves was then determined.

For test [4], the system named is Botrytis cinerea. Kind of test: Activity against Botrytis cinerea on bell peppers (greenhouse, protective spray). Type of test: in vivo. The conditions noted are these: bell pepper seedlings, sprayed 1 day before inoculation, rated after 5 days. As for the experimental part:
as §1, §2, §3, §4, §5, §6, §7
Bell pepper seedlings of the cultivar “Neusiedler Ideal Elite” were, after 2-3 leaves were well developed, sprayed to runoff point with an aqueous suspension in the active compound concentration stated below. […] After 5 days, the extent of the fungal infection on the leaves could be determined visually in %.

Like-named read-outs stand apart in the source and are kept apart here.

With `Fc1ccc([C@]2(Cn3cncn3)O[C@H]2c2ccccc2Cl)cc1` (racemic) [epoxiconazole, (2RS, 3SR)-1-[3-(2-chlorophenyl)-2,3-epoxy-2-(4-fluorophenyl)propyl]-1H-1,2,4-triazole], the Observed activity in test [1] (32 ppm) was 9%; in test [1] (125 ppm), 31%; in test [2] (1 ppm, 405 nm) it was 2%.

In the case of `COCC(=O)N(c1c(C)cccc1C)C(C)C(=O)OC` (racemic) [metalaxyl, methyl N-(methoxyacetyl)-N-(2,6-xylyl)-DL-alaninate], the Observed activity in test [3] (16 ppm) came to 0%.

With `COC(=O)NCc1cc(/C(C)=N/OCc2cccc(C)c2)ccc1Cl` [I-B], the Observed activity in test [4] (16 ppm) came out at 10%; in test [4] (63 ppm), 20%; in test [3] (16 ppm), 6%; in test [1] (0.25 ppm) it was 4%; in test [1] (4 ppm) it was 5%; in test [1] (8 ppm), 27%. In addition, the Observed activity in test [1] (32 ppm) is recorded as 35%; in test [1] (125 ppm), 57%; in test [2] (0.25 ppm, 405 nm) it was 2%; in test [2] (1 ppm, 405 nm), 40%; in test [2] (4 ppm, 405 nm), 67%.

Consider `O=C(Nc1ccccc1-c1ccc(Cl)cc1)c1cccnc1Cl` [boscalid, 2-chloro-N-(4′-chlorbiphenyl-2-yl)nicotinamide], for which the Observed activity in test [3] (16 ppm) amounted to 0%.

With `Cc1ccc(-c2c(Cl)nc(C#N)n2S(=O)(=O)N(C)C)cc1` [cyazofamid, 4-chloro-2-cyano-N,N-dimethyl-5-(4-methylphenyl)-1H-imidazole-1-sulfonamide], the Observed activity is 0% in test [2] (1 ppm, 405 nm) and 0% in test [2] (concentration not printed (second line for cyazofamid)).

Turning to `COc1ccc(C(=CC(=O)N2CCOCC2)c2ccc(Cl)cc2)cc1OC` [dimethomorph, 3-(4-chlorophenyl)-3-(3,4-dimethoxyphenyl)-1-morpholin-4-ylpropenone], the Observed activity in test [3] (2 ppm) and in test [3] (8 ppm) was 0% in each case.

On to `N#Cc1sc2c(=O)c3ccccc3c(=O)c=2sc1C#N` [dithianon, 5,10-dioxo-5,10-dihydronaphtho[2,3-b][1,4]dithiin-2,3-dicarbonitrile], for which, in test [4] (63 ppm), the Observed activity is recorded as 10%.

With `O=[N+]([O-])c1cc(C(F)(F)F)c(Cl)c([N+](=O)[O-])c1Nc1ncc(C(F)(F)F)cc1Cl` [fluazinam, 3-chloro-N-[3-chloro-2,6-dinitro-4-(trifluoromethyl)phenyl]-5-(trifluoromethyl)-2-pyridinamine], the Observed activity in test [1] (1 ppm) is 0%.

Take `CO/N=C(/C(=O)OC)c1ccccc1COc1ccccc1C` [kresoxim-methyl, methyl(E)-methoxyimino[α-(o-tolyloxy)-o-tolyl]acetate]: the Observed activity in test [3] (4 ppm) is 0%; in test [3] (63 ppm), 18%; in test [1] (1 ppm) it was 36%.

Take `OC(Cc1ccccc1Cl)(Cn1nc[nH]c1=S)C1(Cl)CC1` (centres unmarked) [prothioconazole, 2-[2-(1-chlorocyclopropyl)-3-(2-chlorophenyl)-2-hydroxypropyl]-2,4-dihydro[1,2,4]triazol-3-thione]: the Observed activity in test [1] (8 ppm) is 0%; in test [1] (32 ppm), 46%.

For the compound `COC(=O)N(OC)c1ccccc1COc1ccn(-c2ccc(Cl)cc2)n1` [pyraclostrobin, methyl N-{2-[1-(4-chlorophenyl)-1H-pyrazol-3-yloxymethyl]phenyl}(N-methoxy)carbamate], the Observed activity in test [2] (0.25 ppm, 405 nm) turned out to be 20%.

Take “manganese-ethylenebis(dithiocarbamate) zinc complex [mancozeb]”: the Observed activity in test [2] (4 ppm, 405 nm) is 9%.

These data come from patent publication US20080153701A1, “Fungicidal Mixtures” (BASF Aktiengesellschaft, priority 2004, published 2008).
